Experimental data as given in patent US5624903A, “Phosphoinositol-glycan-peptide with insulin-like action” (Heochst Aktiengesellschaft, priority 1991, dated 1997).

What was measured:
rat adipocytes [1] = experiment: Lipogenesis in rat adipocytes ([3H]glucose into lipids); assay type: cell-based; conditions: for Lipogenesis ([3H]lipid): 10 nM
Procedure: (§1) Adipose tissue from the epididymis (Wistar rat, 160-180 g, no feed restriction) is digested with collagenase, and the resulting isolated adipocytes are washed several times by flotation.
(§2) To inactivate the insulin receptor in rat adipocytes, the cells are treated with 10 to 40 μg/ml trypsin. After addition of protease inhibitors, the cells are washed twice by flotation, and incubation is continued at 37° C. for 15 min. These cells are then used for the test of stimulation of lipogenesis by the phosphoinositol-glycanpeptides.
(§3) The experimental results obtained in the following experiments with tissue or cells in which the insulin receptor has been inactivated are indicated in parentheses in each case.
This test determines the conversion, which can be stimulated by insulin, of glucose into toluene-soluble products (triglycerides, phospholipids, fatty acids), which requires glucose transport and triglyceride (glycerol 3-P synthesis, esterification)/phospholipid/fatty acid synthesis including the insulin signal transmission cascade.
Rat adipocytes are incubated in KRH buffer with D-[3-^3 H]glucose (0.2 mM or 1 mM final concentration) in the presence or absence of insulin and PGP at 37° C. for 90 min. The cells are disrupted by adding a toluene-soluble scintillation cocktail, and the lipids are separated from water-soluble products and the incubation medium. After phase separation, the radioactivity incorporated in lipids is determined by scintillation measurement directly without removing the aqueous phase ([^3 H]lipid [dpm*10^-3 ]).

pieces of diaphragm = experiment: Glycogenesis in rat diaphragm pieces ([14C]glucose into glycogen); assay type: cell-based; conditions: 10 nM
Procedure: (§4) Small pieces of tissue (5 mm diameter) were punched out of hemidiaphragms (Wistar rat, 60-70 g, no feed restriction) and washed several times.
(§5) To inactivate the insulin receptor in rat diaphragm, the pieces of tissue are incubated in KRH buffer (0.1 mM glucose in the presence of 50 μg/ml tetradecanoylphorbol acetate) at 25° C., passing O2 through continuously, for 90 min. The pieces of tissue are subsequently washed twice with KRH buffer and used for the relevant tests.
as §3
This test determines the glycogen synthesis which can be stimulated by insulin in myocytes and which embraces glucose transport through the plasma membrane and the conversion of the glucose into glycogen including the functional insulin signal transmission cascade.
Pieces of diaphragm are incubated with 50 μM D-[U-^14 C] glucose in KRH buffer in the presence or absence of insulin and PGP at 37° C. for 15 min. […] To determine the glycogen formed, the filters are transferred into TCA (5%), washed with ethanol and acetone and dried, and their radio-activity is determined by scintillation measurement ([^14 C]glycogen [dpm*10^-3 ]). […]

rat adipocytes [2] = experiment: Protein synthesis in rat adipocytes ([3H]leucine incorporation); assay type: cell-based; conditions: 10 nM
Procedure: as §1, §2, §3
The stimulation of protein synthesis differs from the metabolic effects of insulin measured in the previous determinations in that it belongs to the long-term actions of insulin (as growth hormone). The assay includes the insulin signal cascade.
Rat adipocytes are incubated in primary culture in Dulbecco's modified essential medium (DMEM) deplete in leucine with 50 μM L-[^3 H]-leucine in the presence of insulin and PGP at 37° C. for 4 hours. […] The cell-associated radioactivity, determined by scintillation measurement, serves as a measure of the protein synthesis and the amino-acid transport through the plasma membrane ([^3 H]leucine [dpm*10^-4 ]).

[3] = system: plasma membrane vesicles from rat adipocytes; experiment: Intrinsic glucose transport activity in isolated plasma membrane vesicles; assay type: biochemical; conditions: 10 nM
Procedure: as §1, §2
The experimental results obtained in the following experiments with tissue or cells in which the insulin receptor has been inactivated are indicated in parentheses in each case. […]
Isolated plasma membrane vesicles are incubated in the presence or absence of insulin/PGP at 25° C. for 30 min. The vesicles are subsequently incubated with 50 μM D-[3-^3 H]-glucose and L-[1-^14 C]glucose of the same specific radioactivity at 25° C. for 90 sec. […] Their radioactivity is determined by liquid scintillation measurement. The specific transport (D-[^3 H]glucose/-L-^14 C]glucose [dpm*10^-3 ]) is calculated as the difference between the [^3 H] radioactivity and [^14 C] radioactivity.

glycogen synthase = experiment: Glycogen synthase activity in rat diaphragm pieces; assay type: cell-based; conditions: 10 nM
Procedure: as §4, §5, §3
The test determines the conversion, which can be stimulated by insulin, of activated glucose (UDP-glucose) into glycogen (glycogen synthase activity) including a functional insulin signal transmission cascade. […]
Pieces of diaphragm are incubated with D-glucose (0.1 mM) in the presence or absence of insulin and PGP at 37° C. for 30 min. […] The glycogen synthase activity is calculated as the fractional ratio between the I form of the enzyme (independent of glucose 6-phosphate, dephosphorylated, corresponds to the amount of active enzyme in the homogenate) and the D form of the enzyme (dependent on glucose 6-phosphate, phosphorylated, corresponds to the total amount of activatable enzyme in the homogenate) ([^14 C]glycogen [dpm*10^-3 ]).

[4] = insulin receptor inactivated (value in parentheses)

Insulin: insulin stands for human insulin
Lipogenesis ([3H]lipid) (rat adipocytes [1]; rat adipocytes): 11.2 dpm*10^-3
Lipogenesis ([3H]lipid) (rat adipocytes [1]; trypsin-treated adipocytes, insulin receptor inactivated (value in parentheses)): 1.9 dpm*10^-3
Lipogenesis which can be stimulated by insulin (in words) (rat adipocytes [1]; control incubation, adipocytes treated with 10 to 40 μg/ml trypsin): only very little lipogenesis which can be stimulated by insulin
Glycogenesis ([14C]glycogen) (pieces of diaphragm; rat diaphragm pieces): 8.4 dpm*10^-3
Glycogenesis ([14C]glycogen) (pieces of diaphragm; rat diaphragm, insulin receptor inactivated (value in parentheses)): 4.1 dpm*10^-3
Protein synthesis ([3H]leucine) (rat adipocytes [2]; [4]): 4.0 dpm*10^-4
Protein synthesis ([3H]leucine) (rat adipocytes [2]; rat adipocytes, 4 hours): 10.1 dpm*10^-4
Intrinsic glucose transport (specific transport D-[3H]glucose/L-[14C]glucose) [3, 4]: 2.3 dpm*10^-3
Intrinsic glucose transport (specific transport D-[3H]glucose/L-[14C]glucose) ([3]; plasma membrane vesicles): 2.5 dpm*10^-3
Glycogen synthase (glycogen synthase; [4]): 6.0 dpm*10^-3
Glycogen synthase (glycogen synthase; rat diaphragm pieces): 10.1 dpm*10^-3
